Non-standard residues stand in square brackets, D forms with d. Residues, ends and D or L forms follow the SMILES beside them. dOrn = NCCC[C@@H](N)C(=O)O
Legend:
[1] = tested on: ESKAPE pathogens; experiment: CLSI microbroth dilution antibacterial assay; type: cell-based
Experimental: Bioactivity testing. Initial compounds were tested for activity against antibiotic sensitive and antibiotic resistant ESKAPE pathogens at concentrations varying between 0.5 and 32 μg/mL using the CLSI microbroth dilution assay.^47 Any well with greater than 90% death was considered a hit.
(§1) Bacterial Strains. All strains used in this study except the Bacillus strain and the colistin resistant E. coli strains were obtained from Professor Paul Hergenrother (UIUC). The Bacillus strain was obtained from Professor William Metcalf (UIUC). The colistin resistant E. coli strains (AR Bank Number 0346, 0349, and 0350) were obtained from the CDC AR Isolate bank). E. coli ATCC 25922 (wild type, WT) BAA-2469 (resistant, R), colistin resistant E. coli, K pneumonia ATCC 27736 (WT) and BAA-2146 (R), A. baumannii ATCC 19606 (WT) and KB349 (R), and P. aeruginosa PAO1 (WT) and PA1000 (R) were grown on Mueller Hinton Broth 2 (Sigma Aldrich). S. aureus ATCC 29213 (WT) and NRS3 (R), Enterococcus species ATCC 19433 (WT) and 5235 (R), and B. subtilis 6633 (WT) were maintained on Bacto Brain Heart Infusion.
Antibacterial activity analysis. […] Testing was performed as previously described.10 Turbidity (OD600) of the wells was determined using a SpectraMax iD3 platereader (Molecular Devices). For the compounds that hit during initial screens, minimum inhibitory concentrations were determined. […]

[2] = tested on: A549 non-small cell lung cancer cell line; experiment: Alamar blue viability assay; type: cell-based, human; details: 16 ug/mL, 48 hours
Experimental: Anticancer Testing. A549 non-small cell lung cancer cells (ATCC CCL-185) were obtained directly from ATCC and used within 30 passages. A549 cells were maintained in RPMI 1640 medium supplemented with 10% fetal bovine serum, 100 U/mL penicillin, and 100 ug/mL streptomycin. For anticancer testing, cells were seeded at 2000 cells per well in 96 well plates and allowed to adhere overnight. Cells were then treated with compound at 16 ug/mL (1% DMSO final) or vehicle control for 48 hours. Viability was assessed using Alamar Blue. Specifically, resazurin (Sigma Aldrich, R7017) was dissolved at 440 μM in sterile PBS. 20 μL was then added to each well and incubated for 4-8 h at 37° C. Fluorescence was measured using a SpectraMax iD3 platereader (Excitation: 550 nm, Emission 590 nm). Percent death was calculated by subtracting the background from all wells and setting 0% death to vehicle treated controls.

[3] = tested on: Colistin-resistant bacteria; experiment: CLSI microbroth dilution antibacterial assay, colistin-resistant strains; type: cell-based, E. coli
Source text: as §1
Antibacterial activity analysis. Antibacterial activity analysis for all bacteria was performed using the microdilution broth method as outlined by the Clinical and Laboratory Standards Institute (CLSI).9 Mueller Hinton Broth 2 (MH, Sigma-Aldrich, 90922) was used for all testing. Testing was performed as previously described.10 Turbidity (OD600) of the wells was determined using a SpectraMax iD3 platereader (Molecular Devices). For the compounds that hit during initial screens, minimum inhibitory concentrations were determined. A minimum of three biological replicates were performed. […]

Compound: CC(C)[C@@H]1NC(=O)[C@@H](CCCNC(=N)N)NC(=O)[C@H]([C@@H](C)O)NC(=O)[C@@H](CCCN)NC(=O)[C@H](Cc2ccccc2)NC(=O)[C@@H](Cc2ccccc2)NC1=O [pNP-43] (cyclo(F[dOrn]T[dR]V[dF]))
- antibacterial activity (in words) [1]: activity against several Gram-negative bacteria
- toxicity to A549 cells [2]: no observed hemolytic activity or mammalian cell toxicity
- susceptibility of colistin-resistant bacteria [3]: resistant

— patent US11879142B2, “Bioactive peptide molecules discovered by a combination of bioinformatics technique and chemical synthesis” (Purdue Research Foundation, priority 2021, dated 2024)
